Experimental data taken from patent publication US8192962B2, “Processes for detecting toxic substances” (Daikin Industries, Ltd., priority 2001, dated 2012).

Test system: Unknown protein yeast genes
Assay: DNA chip mRNA expression in yeast, unknown protein yeast genes (Table 1)
Format: cell-based, Saccharomyces cerevisiae S288C
Method: Yeast (Saccharomyces cerevisiae S288C (α SUC2mal mel gap2 CUP1)) were incubated at 25° C. on YPD medium (yeast extract 1%, polypepton 2%, glucose 2%). One of toxic chemical substances was added to the cells at logarithmic growth phase, and the cells were further incubated for two hours. Cells were cultured without any chemical substance in the same condition, and were used as control. Concentrations of the chemical substances were defined to inhibit the growth of the yeast but not lead to death.
After completion of the incubation, the culture was centrifuged to collect the cells. To the cells, sodium acetate buffer (50 mM sodium acetate, 10 mM EDTA, 1% SDS) was added, and the mixture was shaken at 65° C. for five minutes, followed by returning to room temperature, and obtaining the supernatant, of which the procedures were repeated two times. To the supernatant, ½ amount of a solution of phenol/chloroform was added, and the mixture was centrifuged to give a supernatant, which was added with an equal amount of chloroform, and the mixture was centrifuged to give a supernatant. To the supernatant, an equal amount of isopropanol containing 0.3 M sodium acetate was added, and the mixture was allowed to stand at room temperature for 30 minutes, after which the mixture was centrifuged to give a sediment of the whole RNAs. Seventy % ethanol was added to the sediment, and the mixture was again centrifuged to give a sediment, which was then dried and dissolved in water. mRNA was isolated from the whole RNAs as followings. In view of the fact that a poly A chain is attached to the 3′ terminus of mRNA, a polynucleotide having a poly T structure which was immobilized on the surface of latex beads was used to trap the mRNA, and then the mRNA was washed and eluted with spine column (Oligotex-dT30<Super>mRNA Purification Kit, Takara). Reverse transcription of the mRNA was conducted with a reverse transcriptase (Super Script II Reverse Transcriptase; catalogue No. 18064-014, GibcoBRL) using fluorescence-labeled nucleotides to give cDNAs that were introduced with Cy3-dUTP or Cy5-dUTP during the reverse transcription.
The labeled cDNAs were dissolved in TE buffer (10mM Tris-HCl/1 mM EDTA, pH8.0), and the solution was dropped on the DNA chip containing the whole genes of yeast (DNA Chip Research Inc. Japan) so that the cDNAs were hybridized on the DNA chip at 65° C. for over 12 hours. The fluoresces intensity of the DNA chip was read with a scanner, and the ratio relative to the fluorescence intensity resulting from the absence of chemical substance was estimated as the following, which is shown in Tables 1 to 9: […]

Cl[C@H]1[C@H](Cl)[C@@H](Cl)[C@@H](Cl)[C@H](Cl)[C@H]1Cl [(7), γ-hexachlorocyclohexane]
The level of expressed mRNA in the presence of chemical substance/The level of expressed mRNA in the absence of chemical substance (yeast gene YKL195W, incubated two hours with chemical substance): 2.1 | The level of expressed mRNA in the presence of chemical substance/The level of expressed mRNA in the absence of chemical substance (yeast gene YKR091W, incubated two hours with chemical substance): 1.3 | The level of expressed mRNA in the presence of chemical substance/The level of expressed mRNA in the absence of chemical substance (yeast gene YLR054C, incubated two hours with chemical substance): 1.1 | The level of expressed mRNA in the presence of chemical substance/The level of expressed mRNA in the absence of chemical substance (yeast gene YLR149C, incubated two hours with chemical substance): 1.6 | The level of expressed mRNA in the presence of chemical substance/The level of expressed mRNA in the absence of chemical substance (yeast gene YLR152C, incubated two hours with chemical substance): 1.4 | The level of expressed mRNA in the presence of chemical substance/The level of expressed mRNA in the absence of chemical substance (yeast gene YLR194C, incubated two hours with chemical substance): 1.0 | The level of expressed mRNA in the presence of chemical substance/The level of expressed mRNA in the absence of chemical substance (yeast gene YLR324W, incubated two hours with chemical substance): 1.0 | The level of expressed mRNA in the presence of chemical substance/The level of expressed mRNA in the absence of chemical substance (yeast gene YLR350W, incubated two hours with chemical substance): 1.2 | The level of expressed mRNA in the presence of chemical substance/The level of expressed mRNA in the absence of chemical substance (yeast gene YLR387C, incubated two hours with chemical substance): 1.1 | The level of expressed mRNA in the presence of chemical substance/The level of expressed mRNA in the absence of chemical substance (yeast gene YLR460C): 1.1 | The level of expressed mRNA in the presence of chemical substance/The level of expressed mRNA in the absence of chemical substance (yeast gene YML117W, incubated two hours with chemical substance): 0.7 | The level of expressed mRNA in the presence of chemical substance/The level of expressed mRNA in the absence of chemical substance (yeast gene YMR009W, incubated two hours with chemical substance): 1.9 | The level of expressed mRNA in the presence of chemical substance/The level of expressed mRNA in the absence of chemical substance (yeast gene YMR067C, incubated two hours with chemical substance): 1.2 | The level of expressed mRNA in the presence of chemical substance/The level of expressed mRNA in the absence of chemical substance (yeast gene YMR090W): 2.7 | The level of expressed mRNA in the presence of chemical substance/The level of expressed mRNA in the absence of chemical substance (yeast gene YMR095C, incubated two hours with chemical substance): 1.2 | The level of expressed mRNA in the presence of chemical substance/The level of expressed mRNA in the absence of chemical substance (yeast gene YMR097C, incubated two hours with chemical substance): 1.5 | The level of expressed mRNA in the presence of chemical substance/The level of expressed mRNA in the absence of chemical substance (yeast gene YMR102C, incubated two hours with chemical substance): 1.8 | The level of expressed mRNA in the presence of chemical substance/The level of expressed mRNA in the absence of chemical substance (yeast gene YMR107W, incubated two hours with chemical substance): 1.2 | The level of expressed mRNA in the presence of chemical substance/The level of expressed mRNA in the absence of chemical substance (yeast gene YMR180C, incubated two hours with chemical substance): 1.7 | The level of expressed mRNA in the presence of chemical substance/The level of expressed mRNA in the absence of chemical substance (yeast gene YMR184W, incubated two hours with chemical substance): 1.6 | The level of expressed mRNA in the presence of chemical substance/The level of expressed mRNA in the absence of chemical substance (yeast gene YMR191W, incubated two hours with chemical substance): 2.0 | The level of expressed mRNA in the presence of chemical substance/The level of expressed mRNA in the absence of chemical substance (yeast gene YMR295C, incubated two hours with chemical substance): 1.3 | The level of expressed mRNA in the presence of chemical substance/The level of expressed mRNA in the absence of chemical substance (yeast gene YMR316W, incubated two hours with chemical substance): 2.0 | The level of expressed mRNA in the presence of chemical substance/The level of expressed mRNA in the absence of chemical substance (yeast gene YNL044W, incubated two hours with chemical substance): 0.9 | The level of expressed mRNA in the presence of chemical substance/The level of expressed mRNA in the absence of chemical substance (yeast gene YNL074C, incubated two hours with chemical substance): 1.1 | The level of expressed mRNA in the presence of chemical substance/The level of expressed mRNA in the absence of chemical substance (yeast gene YNL092W, incubated two hours with chemical substance): 1.6 | The level of expressed mRNA in the presence of chemical substance/The level of expressed mRNA in the absence of chemical substance (yeast gene YNL115C, incubated two hours with chemical substance): 2.4 | The level of expressed mRNA in the presence of chemical substance/The level of expressed mRNA in the absence of chemical substance (yeast gene YNL156C, incubated two hours with chemical substance): 1.9 | The level of expressed mRNA in the presence of chemical substance/The level of expressed mRNA in the absence of chemical substance (yeast gene YNL234W, incubated two hours with chemical substance): 1.2 | The level of expressed mRNA in the presence of chemical substance/The level of expressed mRNA in the absence of chemical substance (yeast gene YNL281W, incubated two hours with chemical substance): 1.2 | The level of expressed mRNA in the presence of chemical substance/The level of expressed mRNA in the absence of chemical substance (yeast gene YNL305C, incubated two hours with chemical substance): 1.7 | The level of expressed mRNA in the presence of chemical substance/The level of expressed mRNA in the absence of chemical substance (yeast gene YNR068C, incubated two hours with chemical substance): 1.8 | The level of expressed mRNA in the presence of chemical substance/The level of expressed mRNA in the absence of chemical substance (yeast gene YOL032W, incubated two hours with chemical substance): 1.4 | The level of expressed mRNA in the presence of chemical substance/The level of expressed mRNA in the absence of chemical substance (yeast gene YOL036W, incubated two hours with chemical substance): 1.0 | The level of expressed mRNA in the presence of chemical substance/The level of expressed mRNA in the absence of chemical substance (yeast gene YOL047C, incubated two hours with chemical substance): 1.3 | The level of expressed mRNA in the presence of chemical substance/The level of expressed mRNA in the absence of chemical substance (yeast gene YOL071W, incubated two hours with chemical substance): 2.0 | The level of expressed mRNA in the presence of chemical substance/The level of expressed mRNA in the absence of chemical substance (yeast gene YOL082W, incubated two hours with chemical substance): 2.5 | The level of expressed mRNA in the presence of chemical substance/The level of expressed mRNA in the absence of chemical substance (yeast gene YOL083W, incubated two hours with chemical substance): 3.1 | The level of expressed mRNA in the presence of chemical substance/The level of expressed mRNA in the absence of chemical substance (yeast gene YOL117W, incubated two hours with chemical substance): 1.6 | The level of expressed mRNA in the presence of chemical substance/The level of expressed mRNA in the absence of chemical substance (yeast gene YOL131W, incubated two hours with chemical substance): 1.3 | The level of expressed mRNA in the presence of chemical substance/The level of expressed mRNA in the absence of chemical substance (yeast gene YOL150C): 2.4 | The level of expressed mRNA in the presence of chemical substance/The level of expressed mRNA in the absence of chemical substance (yeast gene YOL162W, incubated two hours with chemical substance): 2.0 | The level of expressed mRNA in the presence of chemical substance/The level of expressed mRNA in the absence of chemical substance (yeast gene YOR019W, incubated two hours with chemical substance): 2.8 | The level of expressed mRNA in the presence of chemical substance/The level of expressed mRNA in the absence of chemical substance (yeast gene YOR197W, incubated two hours with chemical substance): 0.9 | The level of expressed mRNA in the presence of chemical substance/The level of expressed mRNA in the absence of chemical substance (yeast gene YPL087W, incubated two hours with chemical substance): 4.2 | The level of expressed mRNA in the presence of chemical substance/The level of expressed mRNA in the absence of chemical substance (yeast gene YPL196W, incubated two hours with chemical substance): 2.4 | The level of expressed mRNA in the presence of chemical substance/The level of expressed mRNA in the absence of chemical substance (yeast gene YPL206C, incubated two hours with chemical substance): 1.2 | The level of expressed mRNA in the presence of chemical substance/The level of expressed mRNA in the absence of chemical substance (yeast gene YPL222W, incubated two hours with chemical substance): 1.1 | The level of expressed mRNA in the presence of chemical substance/The level of expressed mRNA in the absence of chemical substance (yeast gene YPR023C, incubated two hours with chemical substance): 1.2 | The level of expressed mRNA in the presence of chemical substance/The level of expressed mRNA in the absence of chemical substance (yeast gene YPR151C, incubated two hours with chemical substance): 4.4
